Patent publication US12637687B2, “Nucleic acid molecules, polypeptides having epoxy group-removing catalytic activity and use thereof” (SHANDONG AGRICULTURAL UNIVERSITY, priority 2020, dated 2026)

B1: ThFhb7: de-epoxidase from Thinopyrum ponticum; polypeptide having epoxy group-removing catalytic activity, amino acid sequence SEQ ID NO: 36, gene SEQ ID NO: 1 (protein, listed as Elytrigia ponticum)
chain: MATSASTSTPIIPTAIAGAPPVAGTCCAVAPTLSALALAPLAVPTTTTTVLMPAISSVAASLAVPACALPAAGSAPATLPIIHAPATASLVGASPAIAATLGATTPASGAGALPPPGLLATAVGAAMPGLLIPLSGIAASPGLAATAAPASAVAAAPTAHVGLMVHGLPLAPATAAVTLAGPVAAAGLSSTAALGMVGGAAALMMGSLAAMLGALAALPALAASGPPLLGGAATTAAMIVGGTLAMMAATLPVSGTGGAAACHGAIPGGLHAALALTAGVL

Key:
[1] = system: ThFhb7; set-up: species or system Thinopyrum ponticum; conditions: in vivo
[2] = system: ThFhb7; assay type: cell-based, Thinopyrum ponticum
[3] = system: normal human esophageal epithelial cells (HEECs); assay: Cytotoxicity assay by CCK8 method; conditions: 48 h treatment, CCK-8, OD450
[4] = system: human embryonic kidney cell 293-derived line (293T); assay: Cytotoxicity assay by CCK8 method; conditions: 48 h treatment, CCK-8, OD450
[5] = system: pancreatic cancer cell line (PATU8988); assay: Cytotoxicity assay by CCK8 method; conditions: PATU8988, 48 h treatment, CCK-8, OD450
[6] = system: F. pseudograminearum; conditions: in vivo
[7] = system: F. pseudograminearum; conditions: in vivo; remark: listed apart in the source
[8] = system: Pichia pastoris; assay: DON tolerance of transgenic Pichia pastoris; assay type: cell-based; conditions: YPDA media comprising 400 μM DON, 5 days
[9] = system: F. asiaticum; conditions: in vivo
[10] = In vitro enzymatic reaction system of ThFhb7 polypeptide (DON + GSH, LC-HRMS); assay type: biochemical
Procedure: The optimal conditions for the in vitro enzymatic reaction system of ThFhb7 polypeptide were established by gradient experiments of three different factors affecting the enzymatic reaction: • (1) the gradient of reaction enzyme amounts: 1 μg, 5 μg, 10 μg, 25 μg, and 50 μg; • (2) the pH gradient set with various buffers: ranging from 3.0 to 10.0, disodium hydrogen phosphate-citric acid buffer (pH=3.0, 4.0, 5.0), disodium hydrogen phosphate-potassium dihydrogen phosphate buffer (pH=6.0, 7.0), and Tris-phosphate buffer (pH=8.0, 9.0, 10.0); and • (3) the gradient of reaction temperatures: 4° C., 12° C., 15° C., 20° C., 25° C., 30° C., 37° C., 45° C., and 50° C.
The reaction was performed in a phosphate buffer (PBS) (pH=7.0), at 25° C. for 12 h, and samples were taken at 0 h, 0.5 h, 1 h, 3 h, and 6 h respectively for LC-HRMS analysis; through the area results of first-level scanning of LC-HRMS, the changes in the amounts of the two substances, DON as the reaction substrate and the GSH adduct as the reaction product, were obtained with proceeding of reaction, so as to obtain the optimal enzyme amount for the reaction, as shown in FIGS. 14A and 14B. […]

Molecule | amounts decreased as compared with the control [1] | toxin significantly reduced as compared with wheat without ThFhb7 [1] | DON-GSH adduct in DON-treated yeast expressing the active polypeptide [2] | cell viability [3] | cell viability [4] | cell viability [5] | diseased spot area on leaves vs KN199 [6] | death rate of transgenic plants vs wild type [7] | degree of disease at the stem base vs control [7] | growth viability vs transgenic yeast with the blank vector [8] | diseased spot area on leaves vs KN199 [9] | catalysis of vomitoxin into a glutathione adduct in vitro ([10]; DON 1 mg, GSH in PBS, 20° C., 24 h) | enzyme activity above 37° C. (DON-GSH cannot be detected) ([10]; above 37° C., pH 7.0, 25 μg enzyme)
CC(=O)O[C@@H]1C[C@]2(C)[C@@]3(CO)[C@H](O)C(=O)C(C)=C[C@H]3O[C@H]1[C@@]21CO1 [3-ADON, 3-acetyl-deoxynivalenol] | about ⅔ | about ⅓ | – | – | – | – | – | – | – | – | – | – | –
CC1=C[C@H]2O[C@@H]3[C@H](O)C[C@](C)([C@@]2(CO)[C@H](O)C1=O)[C@]31CO1 [DON, deoxynivalenol] | about ⅔ | about ⅓ | detected | decreases sharply | decreases sharply | decreases sharply | – | – | – | – | – | – | –
B1 | – | – | – | – | – | – | significantly reduced | significantly lower | less severe | significantly higher | significantly reduced | efficiently catalyze vomitoxin into a glutathione adduct | basically lost its activity
